# Laboratory results from publication PMC6562610, “Inhibition of Hedgehog Signaling in Fibroblasts, Pancreatic, and Lung Tumor Cells by Oxy186, an Oxysterol Analogue with Drug-Like Properties” (Cells, 2019).
# Entries after “also recorded” stand apart in the source; their conditions may differ.
# What was measured:
# [1] = test system: Hh target gene Gli1 expression in NIH3T3-E1 cells; test: Inhibition of CAPAN-1 conditioned medium (ligand)-induced Gli1 mRNA expression, Q-RT-PCR; assay type: cell-based; conditions: 72 h
# From the text: NIH3T3-E1 fibroblasts were obtained from ATCC (Manassas, VA) and cultured, as previously described. CAPAN-1 and PANC-1 human pancreatic cancer cells were obtained from ATCC and cultured in Dulbecco’s Modified Eagle Medium (DMEM) containing 10% heat-inactivated fetal bovine serum (FBS) (Hyclone Laboratories, Logan, UT, USA) and antibiotics, as previously described. The human lung cancer cell lines A549 and H2030 were obtained from ATCC and cultured in RPMI-1640 containing 10% FBS. The human hepatoma cell line HepG2 was obtained from ATCC and cultured in DMEM containing 10% FBS. Mouse embryonic fibroblasts (MEFs) from suppressor of fused (Sufu) null mice (Sufu^−/−) were provided by Dr. Philip Beachy of Stanford University and cultured in DMEM containing 10% FBS. Gant61, SB431542 and vismodegib (GDC0449) were obtained from Cayman Chemical, HPI-1 was obtained from Abcam. For experiments, cells were treated in a medium containing 5% FBS.
# Growth medium in confluent […] tissue culture plates of CAPAN-1 cells were replaced with 10 ml of fresh growth medium and cells were incubated for a total of 7 days. Conditioned medium (CM), containing Shh and Ihh, was collected and spun down to remove any detached cells and debris, aliquoted, and stored frozen at −80 °C [37].
# Total RNA was extracted with the RNeasy Plus Mini Kit from Qiagen, according to the manufacturer’s instructions. One microgram of RNA was reverse-transcribed using an iScript Reverse Transcription Supermix from Bio-Rad, to make single-stranded cDNA. The cDNAs were then mixed with Qi SYBR Green Supermix (Bio-Rad, Hercules, CA, USA) for quantitative RT-PCR assay using a Bio-Rad I-cycler IQ quantitative thermocycler. […] Fold changes in gene expression were calculated using the ΔΔCt method. […]
# Figure 3 Inhibition of ligand-induced Hedgehog signaling. […] After 72 h, RNA was extracted and analyzed by Q-RT-PCR for the expression of Hh target genes Gli1 (a,b,d) and Ptch1 (c), and normalized to Oaz1 expression. […] Luciferase activity was measured and normalized to the Renilla luciferase activity. […]
# CAPAN-1 cells = test: Cell counting assay, CAPAN-1; assay type: cell-based, human; conditions: 96 h
# Method: A549 and H2030 cells cultured in 12-well plates at 20% confluence were treated with Oxy186, HPI-1, Gant61, or GDC0449 for 96 hours and then trypsinized and suspended in fresh medium. An aliquot of cell suspension was applied to a hemocytometer and counted under a microscope.
# Figure 6 Inhibition of human pancreatic and lung cancer cell proliferation by Oxy186. (a,c) A549, (b) and (d) H2030, (e) PANC-1, and (f) CAPAN-1 cells were treated with the compounds as indicated in RPMI 1640 (a–d) or DMEM (e,f) containing 5% FBS for 96 h and then were trypsinized and counted. Data from a representative experiment are reported as the mean of triplicate determinations ± SD (* p < 0.05 vs. Control; ** p < 0.01 vs. control).
smiles,measurement,setting,value
"C[C@]12CC[C@H](O)C[C@@H]1CC[C@@H]1[C@@H]2CC[C@@]2(C)[C@H]1CC[C@@H]2[C@](C)(O)CCc1ccc(F)cc1 [Oxy186, (3S,5S,8R,9S,10S,13S,14S,17S)-17-((R)-4-(4-fluorophenyl)-2-hydroxybutan-2-yl)-10,13-dimethylhexadecahydro-1H-cyclopenta[a]phenanthren-3-ol]",Inhibition of ligand-induced Gli1 mRNA expression,"[1]; NIH3T3-E1 cells, CAPAN-1 CM",robustly inhibited; also recorded: greater Hh signaling inhibitory efficacy than Oxy16
same,IC50,[1]; NIH3T3 cells activated by CAPAN-1 CM Hh ligands,600 nM
same,Anti-proliferation effect,CAPAN-1 cells,significant anti-proliferation effects; also recorded: moderate anti-proliferative effects
